For eight compounds, GI50 and TGI results are on record in PubChem BioAssay (NCI).

Test systems include SR leukemia; HL-60(TB) leukemia; HOP-62 NSCLC; ACHN renal; HCT-15 colon; NCI-H226 lung; TK-10 renal; SW-620 colon; SN12C renal; CAKI-1 renal.
Holding throughout (test): inhibition of tumour cell growth, NCI panel, 48 h

Molecules are shown by their SMILES. Values joined by “and” are separate entries in the source; they are usually repeats but may differ in a detail not shown here. Equal values may be shown once.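 48-hour exposure; five concentrations; linearly interpolated endpoints. GI50 is the concentration that inhibits growth by half. At the TGI there is no net growth.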

As for `COc1ccc(S(=O)(=O)Nc2cc(/C=C\c3cc(OC)c(OC)c(OC)c3)ccc2OC)cc1`, the GI50 in the assay with SR leukemia was 70.9 nM; with HL-60(TB) leukemia it was 195 nM; in the assay with HOP-62 NSCLC it was 41 nM; in the assay on ACHN renal it was 58.7 nM; in the assay on HCT-15 colon it was 62.3 nM; in the assay with NCI-H226 lung, 12.8 µM. Also, the GI50 with TK-10 renal is 76.8 nM; in the assay on SW-620 colon, 78.5 nM; with SN12C renal it was 682 nM; with CAKI-1 renal, 51.5 nM. For the same compound, the TGI with SR leukemia is 4.18 µM; in the assay with HL-60(TB) leukemia, 0.681 µM; in the assay with HOP-62 NSCLC, greater than 100 µM; in the assay with ACHN renal, 17.3 µM; in the assay with HCT-15 colon it was greater than 100 µM; with NCI-H226 lung it was greater than 100 µM. Besides, the TGI in the assay with TK-10 renal is 11.5 µM; in the assay with SW-620 colon it was greater than 100 µM; in the assay on SN12C renal it was greater than 100 µM; in the assay with CAKI-1 renal it was 20.6 µM.

`NC1=C(c2nc(-c3ccccc3)cs2)C(c2ccc(Br)cc2)c2c(c3ccccc3oc2=O)O1` (centres undefined): the GI50 in the assay on SR leukemia is 55.2 µg/mL; in the assay with HL-60(TB) leukemia, 21.9 µg/mL; in the assay with HOP-62 NSCLC, 116 µg/mL; in the assay on ACHN renal it was 129 µg/mL; with HCT-15 colon it was 70.1 µg/mL; in the assay on NCI-H226 lung, 22.3 µg/mL. Also, the GI50 is greater than 150 µg/mL in the assay with TK-10 renal, 73.9 µg/mL in the assay with SW-620 colon, 85.9 µg/mL with SN12C renal and 70 µg/mL in the assay with CAKI-1 renal. The TGI in the assay with SR leukemia was greater than 150 µg/mL; with HL-60(TB) leukemia, 97.2 µg/mL; in the assay with HOP-62 NSCLC, greater than 150 µg/mL; with ACHN renal, greater than 150 µg/mL; with HCT-15 colon, greater than 150 µg/mL; with NCI-H226 lung, 94 µg/mL. For the same compound, the TGI in the assay on TK-10 renal, in the assay on SW-620 colon, in the assay with SN12C renal and in the assay on CAKI-1 renal was greater than 150 µg/mL each time.

Regarding `Nc1c([N+](=O)[O-])cc2c3c(cccc13)CC2`, the TGI with SR leukemia, in the assay on HL-60(TB) leukemia, in the assay on HOP-62 NSCLC, in the assay with ACHN renal, in the assay with HCT-15 colon and with NCI-H226 lung was greater than 100 µM throughout. In addition, the TGI with TK-10 renal, in the assay on SW-620 colon, in the assay on SN12C renal and in the assay on CAKI-1 renal was greater than 100 µM each time.

For the compound `COc1cc(NC(=O)CSc2nc3ccc(C)cc3c(=O)n2Cc2ccccc2)cc(OC)c1OC`, the GI50 in the assay with SR leukemia was 52700 nM; in the assay on HL-60(TB) leukemia it was greater than 100000 nM; in the assay on HOP-62 NSCLC, 2300 nM; in the assay on ACHN renal, 3490 nM; in the assay on HCT-15 colon, greater than 100000 nM; in the assay on NCI-H226 lung, 3.2 µM. Moreover, the GI50 in the assay on TK-10 renal was 5580 nM; with SW-620 colon it was greater than 100000 nM; in the assay with SN12C renal, 25400 nM; with CAKI-1 renal, 5080 nM. Also, the TGI in the assay on SR leukemia is greater than 100 µM; in the assay on HL-60(TB) leukemia, greater than 100 µM; in the assay on HOP-62 NSCLC, 5.8 µM; in the assay on ACHN renal, greater than 100 µM; with HCT-15 colon, greater than 100 µM; in the assay on NCI-H226 lung, 22.3 µM. The TGI with TK-10 renal is 92.3 µM; in the assay with SW-620 colon, greater than 100 µM; in the assay with SN12C renal, greater than 100 µM; with CAKI-1 renal it was greater than 100 µM.

Take `O=P(CCCCP(=O)(c1ccccc1)c1ccccc1)(c1ccccc1)c1ccccc1.[Cl][Sn]([Cl])([c]1ccccc1)[c]1ccccc1`: the GI50 in the assay on SR leukemia was 1780 nM; in the assay with HL-60(TB) leukemia, 2040 nM; in the assay on HOP-62 NSCLC, 462 nM; in the assay with ACHN renal it was 1860 nM; in the assay on HCT-15 colon, 1230 nM; in the assay with NCI-H226 lung, 5.07 µM. Besides, the GI50 in the assay on TK-10 renal was 1770 nM; in the assay on SW-620 colon, 696 nM; in the assay on SN12C renal, 2100 nM; in the assay with CAKI-1 renal it was 661 nM. Besides, the TGI is greater than 100 µM in the assay on SR leukemia; 6.61 µM with HL-60(TB) leukemia; 2.67 µM in the assay with HOP-62 NSCLC; 3.53 µM with ACHN renal; 3.02 µM in the assay on HCT-15 colon; 11.3 µM in the assay with NCI-H226 lung. For the same compound, the TGI with TK-10 renal is 3.32 µM; with SW-620 colon it was 5.59 µM; in the assay on SN12C renal, 5.76 µM; in the assay with CAKI-1 renal, 3.32 µM.

On to `O=C(c1ccccc1)C(Br)C(Br)c1cccc([N+](=O)[O-])c1` (centres undefined), for which the GI50 with SR leukemia is 1200 nM; in the assay on HL-60(TB) leukemia, 2040 nM; with HOP-62 NSCLC, 4260 nM; with ACHN renal, 1460 nM; with HCT-15 colon, 1720 nM; in the assay with NCI-H226 lung it was 1.74 µM. The GI50 in the assay with TK-10 renal was 2810 nM; in the assay on SW-620 colon it was 342 nM; in the assay on SN12C renal, 1880 nM; in the assay with CAKI-1 renal it was 1760 nM. Besides, the TGI came out at 4.53 µM with SR leukemia; 4.68 µM in the assay on HL-60(TB) leukemia; 14.4 µM with HOP-62 NSCLC; 2.77 µM in the assay on ACHN renal; 3.36 µM in the assay with HCT-15 colon; 3.46 µM in the assay with NCI-H226 lung. In addition, the TGI with TK-10 renal came to 8.31 µM; in the assay on SW-620 colon, 1.49 µM; in the assay on SN12C renal it was 4.21 µM; with CAKI-1 renal, 3.58 µM.

`CC1(O)CC(c2nc(-c3ccc4ccc(-c5ccccc5)nc4c3)c3c(N)nccn23)C1` (centres undefined): the GI50 with SR leukemia was 15700 nM and 7920 nM; in the assay on HOP-62 NSCLC it was 5750 nM and 7350 nM; in the assay with ACHN renal, 7440 nM and 7790 nM; in the assay on HCT-15 colon it was 4520 nM and 3680 nM; in the assay with NCI-H226 lung, 3.72 µM and 3.12 µM; in the assay with TK-10 renal, 12000 nM and > 10000 nM. Moreover, the GI50 was 4870 nM and 2360 nM in the assay on SW-620 colon; 9640 nM and > 10000 nM in the assay with SN12C renal; 4580 nM and 2160 nM with CAKI-1 renal. In addition, the TGI with SR leukemia was greater than 75.2 µM; in the assay on HL-60(TB) leukemia, 25.8 µM and > 10 µM; in the assay with HOP-62 NSCLC, 50.6 µM and > 10 µM; in the assay with ACHN renal it was greater than 100 µM; in the assay with HCT-15 colon it was greater than 79.6 µM; with NCI-H226 lung it was 49.7 µM and > 10 µM. The TGI was 56.3 µM and > 10 µM with TK-10 renal; 34.8 µM and > 10 µM in the assay on SW-620 colon; greater than 80.9 µM with SN12C renal; greater than 100 µM in the assay with CAKI-1 renal.

On to `N#CC1=C(N)Oc2c(sc3c(Br)cccc23)C1c1ccc(Br)cc1` (centres undefined), for which the GI50 in the assay on SR leukemia is 208 nM; in the assay on HL-60(TB) leukemia it was 280 nM; in the assay with HOP-62 NSCLC it was 410 nM; in the assay on ACHN renal, 912 nM; with HCT-15 colon, 601 nM; with NCI-H226 lung, 4.28 µM. Also, the GI50 was 986 nM in the assay on TK-10 renal, 1550 nM in the assay on SW-620 colon, 2330 nM in the assay on SN12C renal and 1970 nM with CAKI-1 renal. In addition, the TGI turned out to be 5.91 µM in the assay on SR leukemia; 0.788 µM in the assay with HL-60(TB) leukemia; 2.62 µM with HOP-62 NSCLC; 9.37 µM in the assay on ACHN renal; 11.4 µM in the assay with HCT-15 colon; 20.2 µM in the assay on NCI-H226 lung. Moreover, the TGI with TK-10 renal is 2.57 µM; with SW-620 colon, 15.1 µM; with SN12C renal, 13.4 µM; with CAKI-1 renal, 22.2 µM.
